# Earlier results, collected in US20080233144A1, “Use of the Mushroom Agaricus Blazei Murill for the Production of Medicaments Suitable for Treating Infections and Allergies” (priority 2004, published 2008).
# System: Streptococcus pneumoniae serotype 6B
# Settings: previous experiments
substance,measurement,value
β-glucan,effect in the pneumococcus infection model when given via gavage,did not have any effect
